Laboratory results published in publication PMC7889231 (Journal of Enzyme Inhibition and Medicinal Chemistry, 2021).
Read-outs that look alike come from different tables or passages of the source.

Columns and labels:
tubulin = assay: In vitro tubulin polymerisation inhibition (turbidimetric, fluorescent plate reader); type: biochemical; conditions: mean of three experiments
Method: The inhibition assay on microtubule polymerisation was evaluated turbidimetrically using a fluorescent plate reader.
The effect of the synthesised compounds on tubulin polymerisation was assessed turbidimetrically using a fluorescent plate reader method. The complete procedure was depected in Supplementary data.

MCF-7 = assay: MTT anti-proliferative assay, MCF-7; type: cell-based, human; conditions: for IC50: Homo sapiens
HepG-2 = assay: MTT anti-proliferative assay, HepG-2; type: cell-based, human; conditions: for IC50: Homo sapiens; for times of colchicine cytotoxic activity, HepG-2: ratio of IC50 to colchicine
[1] = test system: HepG-2, HCT-116, and MCF-7; assay: MTT anti-proliferative assay, ranges stated over several cell lines; type: cell-based; conditions: Homo sapiens
HCT-116 = assay: MTT anti-proliferative assay, HCT-116; type: cell-based, human; conditions: for IC50: Homo sapiens; for times of colchicine cytotoxic activity, HCT-116: ratio of IC50 to colchicine
HepG-2 cells [2] = assay: Annexin V-FITC/PI apoptosis assay; type: cell-based, human; conditions: HepG-2, 1.89 µM, 24 h
Method: Annexin V and PI double staining assay[51] was carried out to explore the proposed apoptotic effect of the synthesised compounds. Compound 25 as a representative example was tested against HepG-2 cells. In this test, HepG-2 cells were incubated with compound 25 at a concentration of 1.89 µM for 24 h.
The effect of compound 25 on apoptosis induction was analysed using Annexin V-FITC/PI apoptosis detection kit using flowcytometer[51]^,[55]^,[56] as illustrated in Supplementary data.

HepG-2 cells [3] = assay: Cell cycle analysis by flow cytometry; type: cell-based, human; conditions: HepG-2, 1.89 µM, 24 h
Method: The impact of the most promising compound 25 on cell cycle distribution was assessed. Such analysis gave a better insight into the effect of the synthesised compounds on cancer cell growth inhibition. HepG-2 cells were utilised in this test. The reported method described by Wand et al.[50] was followed.
The effect of the most promising compound 25 on cell cycle was evaluated using flowcytometer[50]^,[53]^,[54] as illustrated in Supplementary data.

[4] = MCF7, MTT, mean ± SD of three experiments, read-out: IC50 MCF-7
[5] = HepG2, MTT, mean ± SD of three experiments, read-out: IC50 HepG-2
[6] = range over HepG-2, HCT-116 and MCF-7 and over the listed compounds, read-out: IC50 values ranging (all tested cell lines)
[7] = HCT-116, MTT, mean ± SD of three experiments, read-out: IC50 HCT-116
[8] = range over HCT-116 and MCF-7 and over the listed compounds, read-out: IC50 values ranging (HCT-116 and MCF-7)

| SMILES | IC50 (tubulin) [nM] | melting point [°C] | IC50 (MCF-7; [4]) [µM] | IC50 [1, 6] [µM] | IC50 (HCT-116; [7]) [µM] | IC50 (HepG-2; [5]) [µM] | also measured |
| --- | --- | --- | --- | --- | --- | --- | --- |
| COc1ccc2nc(Cl)c(C3CC(c4ccc(Cl)cc4)=NN3c3ccccc3)cc2c1 (stereo not shown) [Compound 20, 2-Chloro-3-[3–(4-chlorophenyl)-1-phenyl-4,5-dihydro-1H-pyrazol-5-yl]-6-methoxyquinoline] | 36.8 | 145 to 146 | 4.51 ± 0.2 | 1.78 to 9.19 | 1.81 ± 0.1 | 2.6 ± 0.1 | times of colchicine cytotoxic activity, HepG-2 (HepG-2): 5.15 times; times of colchicine cytotoxic activity, HCT-116 (HCT-116): 2.84 times |
| COc1ccc2nc(Cl)c(C3CC(c4cc(OC)c(OC)c(OC)c4)=NN3c3ccccc3)cc2c1 (stereo not shown) [Compound 22, 2-Chloro-6-methoxy-3-[1-phenyl-3–(3,4,5-trimethoxyphenyl)-4,5-dihydro-1H-pyrazol-5-yl]quinoline] | 19.1 | 136 to 137 | 6.45 ± 0.2 | 1.78 to 9.19 | 3.04 ± 0.3 | 4.76 ± 0.2 |  |
| COc1ccc2nc(Cl)c(-c3cc(-c4ccc(N)cc4)nc(=O)[nH]3)cc2c1 [Compound 33, 4–(4-Aminophenyl)-6–(2-chloro-6-methoxyquinolin-3-yl)pyrimidin-2(1H)-one] | 47.2 | 171 to 172 | 10.3 ± 0.5 |  | 8.5 ± 0.2 | 9.37 ± 0.4 | IC50 [1, 8]: 6.48 to 10.3 µM |
| COc1ccc2nc(Cl)c(C3CC(c4cc(OC)c(OC)c(OC)c4)=NN3c3ccc([N+](=O)[O-])cc3[N+](=O)[O-])cc2c1 (stereo not shown) [Compound 25, 2-Chloro-3-[1–(2,4-dinitrophenyl)-3–(3,4,5-trimethoxyphenyl)-4,5-dihydro-1H-pyrazol-5-yl]-6-methoxyquinoline] | 41.3 | 135 to 136 | 4.21 ± 0.1 | 1.78 to 9.19 | 1.43 ± 0.1 | 1.89 ± 0.2 | times of colchicine cytotoxic activity, MCF-7 (MCF-7; ratio of IC50 to colchicine): 2.47 times; times of colchicine cytotoxic activity, HepG-2 (HepG-2): 3.91 times; apoptotic effect relative to control (HepG-2 cells [2]): thirteen times more than the control; Apoptosis Early (HepG-2 cells [2]; control 0.67): 7.66%; Apoptosis Late (HepG-2 cells [2]; control 0.72): 11.39%; Necrosis (HepG-2 cells [2]; control 1.18): 2.41%; apoptotic effect (early and late apoptosis) (HepG-2 cells [2]; control 1.39%): 19.05%; effect on cell cycle (HepG-2 cells [3]): arrest the cell cycle at G2/M phase; Cell cycle distribution %Pre-G1 (HepG-2 cells [3]; control 2.57): 21.46%; Cell cycle distribution %G2-M (HepG-2 cells [3]; control 13.8): 30.17%; Cell cycle distribution %S (HepG-2 cells [3]; control 24.83): 28.95%; Cell cycle distribution %G0-G1 (HepG-2 cells [3]; control 61.37): 40.88%; times of colchicine cytotoxic activity, HCT-116 (HCT-116): 6.51 times |
| COc1ccc2nc(Cl)c(C3CC(c4ccc(N)cc4)=NN3c3ccc([N+](=O)[O-])cc3[N+](=O)[O-])cc2c1 (stereo not shown) [Compound 24, 4-[5–(2-Chloro-6-methoxyquinolin-3-yl)-1–(2,4-dinitrophenyl)-4,5-dihydro-1H-pyrazol-3-yl]aniline] | 146 | 139 to 140 |  |  |  |  | IC50 (MCF-7; MCF7, read-out: IC50 MCF-7): 4.97 ± 0.1 µM; IC50 (HepG-2; HepG2, read-out: IC50 HepG-2): 3.14 ± 0.1 µM; IC50 ([1]; read-out: IC50 values ranging (all tested cell lines)): 1.78 to 9.19 µM; IC50 (HCT-116; HCT-116, read-out: IC50 HCT-116): 4.18 ± 0.2 µM |

The remaining compounds from weak to strong by IC50 (tubulin), led by results:

| IC50 (tubulin) [nM] | melting point [°C] | IC50 (MCF-7; [4]) [µM] | IC50 [1, 6] [µM] | IC50 (HCT-116; [7]) [µM] | SMILES | IC50 (HepG-2; [5]) [µM] | also measured |
| --- | --- | --- | --- | --- | --- | --- | --- |
| 50.1 | 136 to 137 | 10 ± 0.4 |  | 7.62 ± 0.4 | COc1ccc2nc(Cl)c(C3CC(c4ccc(Cl)cc4)=NN3C(N)=S)cc2c1 (stereo not shown) [Compound 14, 5–(2-Chloro-6-methoxyquinolin-3-yl)-3–(4-chlorophenyl)-4,5-dihydro-1H-pyrazole-1-carbothioamide] | 8.92 ± 0.4 | IC50 [1, 8]: 6.48 to 10.3 µM |
| 37.4 | 141 to 142 | 7.34 ± 0.2 | 1.78 to 9.19 | 5.85 ± 0.3 | COc1ccc2nc(Cl)c(-c3cc(-c4cc(OC)c(OC)c(OC)c4)nc(=S)[nH]3)cc2c1 [Compound 28, 6–(2-Chloro-6-methoxyquinolin-3-yl)-4–(3,4,5-trimethoxyphenyl)pyrimidine-2(1H)-thione] | 5.47 ± 0.2 |  |
| 34.5 | 155 to 156 | 5.55 ± 0.2 | 1.78 to 9.19 | 2.24 ± 0.2 | COc1ccc2nc(Cl)c(-c3cc(-c4ccc(Cl)cc4)nc(=S)[nH]3)cc2c1 [Compound 26, 6–(2-Chloro-6-methoxyquinolin-3-yl)-4–(4-chlorophenyl)pyrimidine-2(1H)-thione] | 3.62 ± 0.1 |  |
| 10.5 | 180 to 181 | 9.89 ± 0.4 |  | 6.48 ± 0.2 | COc1ccc2nc(Cl)c(-c3cc(-c4ccc(Cl)cc4)nc(=O)[nH]3)cc2c1 [Compound 32, 6–(2-Chloro-6-methoxyquinolin-3-yl)-4–(4-chlorophenyl)pyrimidin-2(1H)-one] | 8.16 ± 0.2 | IC50 [1, 8]: 6.48 to 10.3 µM |
| 9.11 | 136 to 137 | 9.19 ± 0.3 | 1.78 to 9.19 | 8.91 ± 0.3 | COc1ccc2nc(Cl)c(C3CC(c4ccc(N)cc4)=NN3c3ccccc3)cc2c1 (stereo not shown) [Compound 21, 4-[5–(2-Chloro-6-methoxyquinolin-3-yl)-1-phenyl-4,5-dihydro-1H-pyrazol-3-yl]aniline] | 7.32 ± 0.2 |  |
